The source of these data is US11560372B2, “Heterocyclic compounds useful as modulators of acetylcholine receptors” (TAKEDA PHARMACEUTICAL COMPANY LIMITED, priority 2017, dated 2023).

In one data set the target is T1, MDR1 (Homo sapiens, UniProt P08183).
T1 construct: expressed in transfected cells
The data set is described as follows: MDR1 membrane permeability test. The data set is classed as in vitro ADME. The settings on record: pH 7.4, efflux ratio (ER), Papp B to A / A to B, human MDR1-expressing LLC-PK1 cells, read-out: MDR1 substrate screening 1 μM (MDRSUB1)/Ratio (NUMBER). The essentials: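 Human MDR1-expressing LLC-PK1 cells were grown for 3 days on 96-well polyethylene terephthalate Transwell supports (0.4 μm pores, 0.143 cm^2) seeded at 3.45×10^4 cells/well. After a 30 min preincubation in M199 medium with 10 mmol/L HEPES and 1% BSA (pH 7.4), drug was added apically or basolaterally. After 1 hr at 37° C, the opposite side was sampled and analyzed by LC-MS/MS. Efflux ratio was calculated from Papp B to A versus A to B.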

The target of data set [1] is T2, human M1 receptor (hCHRM1) (Homo sapiens, UniProt P11229).
T2 construct: expressed in transfected cells
T2 sequence (P11229 1-460): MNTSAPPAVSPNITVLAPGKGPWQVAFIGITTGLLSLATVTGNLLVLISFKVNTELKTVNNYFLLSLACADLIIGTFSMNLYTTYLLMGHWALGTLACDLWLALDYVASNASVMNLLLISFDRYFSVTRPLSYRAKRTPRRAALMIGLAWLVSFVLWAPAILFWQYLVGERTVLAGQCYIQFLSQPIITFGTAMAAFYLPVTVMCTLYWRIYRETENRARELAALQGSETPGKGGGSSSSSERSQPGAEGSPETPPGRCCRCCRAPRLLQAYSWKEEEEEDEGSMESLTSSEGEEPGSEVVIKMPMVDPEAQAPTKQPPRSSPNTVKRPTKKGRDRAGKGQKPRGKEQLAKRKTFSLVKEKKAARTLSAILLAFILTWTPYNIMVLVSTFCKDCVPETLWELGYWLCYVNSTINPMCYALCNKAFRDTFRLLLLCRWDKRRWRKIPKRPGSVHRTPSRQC
The data set is described as follows: Measurement of M1 receptor positive allosteric modulator (M1PAM) activity, calcium fluorescence in CHO-K1 cells. The data set is classed as cell-based. Conditions: for activity (%) at 10 μM: 10 μM test compound, 100% = acetylcholine final concentration 1 μM, 0% = DMSO; for EC50: inflection point of concentration-dependent curve, in the presence of acetylcholine at EC20 concentration (final 0.8-1.0 nM), read-out: IP value. On the procedure: Measurement of M1 Receptor Positive Allosteric Modulator (M1PAM) Activity
The activity of a test compound in the presence of acetylcholine at EC20 concentration (final concentration 0.8-1.0 nM), which affords an action corresponding to about 20% of the maximum activity, was measured as PAM activity. The method is as follows. CHO-K1 cells stably expressing a human M1 receptor (hCHRM1) were plated on a 384-well black clear bottom plate (BD Falcon) at 5,000 cells/well, and cultured in an incubator at 37° C., 5% CO2 for 1 day. The medium in the cell plate was removed, and assay buffer A containing calcium indicator (Recording medium (DOJINDO LABORATORIES), 0.1% BSA (Wako Pure Chemical Industries, Ltd.), 2.5 μg/mL Fluo-4 AM (DOJINDO LABORATORIES), 0.08% Pluronic F127 (DOJINDO LABORATORIES), 1.25 mM probenecid (DOJINDO LABORATORIES)) was added at 30 μL/well. The cells were left standing in the incubator at 37° C., 5% CO2 for 30 min, and further left standing at room temperature for 30 min. A test compound prepared by diluting with assay buffer B (HBSS (Invitrogen), 20 mM HEPES (Invitrogen), 0.1% BSA) containing 3.2-4.0 nM acetylcholine was added at 10 μL/well, and the fluorescence was measured by FDSS/pCELL (Hamamatsu Photonics K.K.) for 1 min every for 1 second. With the definition that the amount of change in the fluorescence on addition of acetylcholine (final concentration 1 μM) is 100% and that on addition of DMSO instead of a test compound is 0%, the activity (%) of the test compound was calculated, and the inflection point in the concentration-dependent curve of the test compound was calculated as IP values.

T1 sequence (P08183 whole entry): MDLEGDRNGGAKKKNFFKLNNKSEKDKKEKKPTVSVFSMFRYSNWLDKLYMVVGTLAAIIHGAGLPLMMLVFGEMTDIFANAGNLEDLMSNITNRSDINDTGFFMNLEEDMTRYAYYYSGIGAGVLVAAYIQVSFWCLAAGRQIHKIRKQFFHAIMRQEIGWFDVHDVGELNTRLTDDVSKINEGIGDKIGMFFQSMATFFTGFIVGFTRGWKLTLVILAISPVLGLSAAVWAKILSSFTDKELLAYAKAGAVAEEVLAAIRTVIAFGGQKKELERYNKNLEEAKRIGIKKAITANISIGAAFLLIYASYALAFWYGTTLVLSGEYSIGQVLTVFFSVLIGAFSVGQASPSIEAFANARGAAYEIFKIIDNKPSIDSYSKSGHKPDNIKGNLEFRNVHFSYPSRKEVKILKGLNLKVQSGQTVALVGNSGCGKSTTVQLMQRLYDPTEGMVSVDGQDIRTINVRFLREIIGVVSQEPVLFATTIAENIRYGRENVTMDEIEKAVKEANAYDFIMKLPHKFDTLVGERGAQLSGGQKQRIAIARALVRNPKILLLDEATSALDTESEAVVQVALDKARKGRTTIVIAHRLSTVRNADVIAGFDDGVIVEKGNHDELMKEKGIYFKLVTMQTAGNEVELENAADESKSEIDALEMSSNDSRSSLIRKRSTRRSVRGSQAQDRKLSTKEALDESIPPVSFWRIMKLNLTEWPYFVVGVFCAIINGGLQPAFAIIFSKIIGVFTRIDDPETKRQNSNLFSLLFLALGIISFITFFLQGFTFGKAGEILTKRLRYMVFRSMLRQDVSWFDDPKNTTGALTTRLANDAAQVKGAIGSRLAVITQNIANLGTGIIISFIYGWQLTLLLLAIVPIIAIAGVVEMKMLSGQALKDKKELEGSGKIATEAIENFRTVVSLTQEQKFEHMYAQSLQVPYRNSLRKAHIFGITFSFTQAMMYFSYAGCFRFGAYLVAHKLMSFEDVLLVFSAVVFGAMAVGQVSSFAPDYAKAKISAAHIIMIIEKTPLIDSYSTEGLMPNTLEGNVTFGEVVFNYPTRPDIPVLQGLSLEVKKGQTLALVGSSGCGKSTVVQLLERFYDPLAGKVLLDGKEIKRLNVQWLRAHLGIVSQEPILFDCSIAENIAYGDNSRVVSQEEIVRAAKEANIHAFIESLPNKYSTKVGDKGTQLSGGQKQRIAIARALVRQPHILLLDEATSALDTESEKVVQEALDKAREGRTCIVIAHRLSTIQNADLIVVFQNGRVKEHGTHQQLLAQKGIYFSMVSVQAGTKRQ

For `COCCn1cc(-c2ccc(Cc3cc4c(=O)n([C@H]5CCOC[C@@H]5O)cnc4c(C)c3C)cn2)cn1` [Example 73, 1,5-anhydro-2,3-dideoxy-3-(6-((6-(1-(2-methoxyethyl)-1H-pyrazol-4-yl)pyridin-3-yl)methyl)-7,8-dimethyl-4-oxoquinazolin-3(4H)-yl)-L-threo-pentitol], the efflux ratio at 1 hr, 1 μM on MDR1 came to 18. Further, in data set [1], the “activity (%) at 10 μM” value was determined as 109% and the EC50 was found to be 1.4 nM.

On to `Cc1c(Cc2ccc(-c3cn(C)nn3)nc2)cc2c(=O)n([C@H]3CCOC[C@@H]3O)nnc2c1C` [Example 62, 1,5-anhydro-2,3-dideoxy-3-(7,8-dimethyl-6-((6-(1-methyl-1H-1,2,3-triazol-4-yl)pyridin-3-yl)methyl)-4-oxo-1,2,3-benzotriazin-3 (4H)-yl)-L-threo-pentitol], for which, at MDR1, the efflux ratio at 1 hr, 1 μM worked out at 9.4. In data set [1], the “activity (%) at 10 μM” value amounted to 107% and the EC50 came out at 2.5 nM.

Consider `Cc1c(Cc2ccc(-c3cnn(CC4CC4)c3)nc2)cc2c(=O)n([C@H]3CCOC[C@@H]3O)cnc2c1C` [Example 71, 1,5-anhydro-3-(6-((6-(1-(cyclopropylmethyl)-1H-pyrazol-4-yl)pyridin-3-yl)methyl)-7,8-dimethyl-4-oxoquinazolin-3(4H)-yl)-2,3-dideoxy-L-threo-pentitol], for which the efflux ratio at 1 hr, 1 μM at MDR1 came out at 8. Also, in data set [1], the “activity (%) at 10 μM” value was 107% and the EC50 is 2.5 nM.

For the molecule `Cc1cc(-c2ccc(Cc3cc4c(=O)n([C@H]5CCOC[C@@H]5O)cnc4c(C)c3C)cc2)cnn1` [Example 4, 1,5-anhydro-2,3-dideoxy-3-(7,8-dimethyl-6-(4-(6-methylpyridazin-4-yl)benzyl)-4.-oxoquinazolin-3(4H)-yl)-L-threo-pentitol], at MDR1, the efflux ratio at 1 hr, 1 μM stood at 5.7. For the same molecule, in data set [1], the “activity (%) at 10 μM” value was found to be 101% and the EC50 was 2 nM.

On to `Cc1c(Cc2ccc(C(=O)NCCN3CCCC3=O)c(F)c2)cc2c(=O)n([C@H]3CCOC[C@@H]3O)cnc2c1C` [Example 77, 1,5-anhydro-2,3-dideoxy-3-(6-(3-fluoro-4-((2-(2-oxopyrrolidin-1-yl)ethyl)carbamoyl)benzyl)-7,8-dimethyl-4-oxoquinazolin-3 (4H)-yl)-L-threo-pentitol], for which the efflux ratio at 1 hr, 1 μM on MDR1 turned out to be 32. For the same molecule, in data set [1], the “activity (%) at 10 μM” value was found to be 107% and the EC50 turned out to be 2 nM.

On to `Cc1c(Cc2ccc(C(=O)NC3CC3)c(F)c2)cc2c(=O)n([C@H]3CCOC[C@@H]3O)cnc2c1C` [Example 87, 1,5-anhydro-3-(6-(4-(cyclopropylcarbamoyl)-3-fluorobenzyl)-7,8-dimethyl-4-oxoquinazolin-3(4H)-yl)-2,3-dideoxy-L-threo-pentitol], for which the efflux ratio at 1 hr, 1 μM at MDR1 was 8.7. Moreover, in data set [1], the “activity (%) at 10 μM” value stood at 111% and the EC50 was found to be 2.3 nM.

On to `CNC(=O)c1ccc(Cc2cc3c(=O)n([C@H]4CCOC[C@@H]4O)cnc3c(C)c2C)cc1` [Example 18, 1,5-anhydro-2,3-dideoxy-3-(7,8-dimethyl-6-(4-(methylcarbamoyl)benzyl)-4-oxoquinazolin-3(4H)-yl)-L-threo-pentitol], for which the efflux ratio at 1 hr, 1 μM at MDR1 was determined as 24. In data set [1], the “activity (%) at 10 μM” value amounted to 106% and the EC50 amounted to 1 nM.

Consider `Cc1c(Cc2ccc(-c3ccn(C)n3)nc2)cc2c(=O)n([C@H]3CCOC[C@@H]3O)cnc2c1Cl` [Example 13, 1,5-anhydro-3-(8-chloro-7-methyl-6-((6-(1-methyl-1H-pyrazol-3-yl)pyridin-3-yl)methyl)-4-oxoquinazolin-3(4H)-yl)-2,3-dideoxy-L-threo-pentitol], for which the efflux ratio at 1 hr, 1 μM on MDR1 was 38. Besides, in data set [1], the “activity (%) at 10 μM” value came to 101% and the EC50 came to 1 nM.

`Cc1c(Cc2ccc(-c3cnn(C)c3)cc2)cc2c(=O)n([C@H]3CCOC[C@@H]3O)cnc2c1F` [Example 24, 1,5-anhydro-2,3-dideoxy-3-(8-fluoro-7-methyl-6-(4-(1-methyl-1H-pyrazol-4-yl)benzyl)-4-oxoquinazolin-3(4H)-yl)-L-threo-pentitol]: at MDR1, the efflux ratio at 1 hr, 1 μM stood at 3.4. Moreover, in data set [1], the “activity (%) at 10 μM” value came to 108% and the EC50 turned out to be 3.7 nM.

For `Cc1c(Cc2ccc(C(=O)NCCS(C)(=O)=O)c(F)c2)cc2c(=O)n([C@H]3CCOC[C@@H]3O)cnc2c1C` [Example 84, 1,5-anhydro-2,3-dideoxy-3-(6-(3-fluoro-4-((2-(methylsulfonyl)ethyl)-carbamoyl)benzyl)-7,8-dimethyl-4-oxoquinazolin-3 (4H)-yl)-L-threo-pentitol], the efflux ratio at 1 hr, 1 μM on MDR1 came out at 11. In data set [1], the “activity (%) at 10 μM” value is on record as 106% and the EC50 is 1.9 nM.
